Reference: patent publication US10821093B2, “Antibacterial microelement chelates and the use thereof in animal feeds” (priority 2012, dated 2020)

Assays:
[1] = test system: Staphylococcus aureus; test: MIC, liquid culture dilution; type: cell-based
[2] = test system: Escherichia coli; test: MIC, liquid culture dilution (single chelates and cross-dilution combinations); type: cell-based
[3] = test system: Streptococcus agalactiae; test: MIC, liquid culture dilution; type: cell-based
[4] = test system: Clostridium perfringens; type: cell-based
[5] = test system: Salmonella enterica; test: MIC, liquid culture dilution (single chelates and cross-dilution combinations); type: cell-based, Salmonella enterica subp. Enterica serovar enteritidis
[6] = test system: Brachyspira hyodysenteriae; test: MIC (single chelates and combinations)
[7] = test system: Saccharomyces cerevisiae; test: MIC, liquid culture dilution; type: cell-based
[8] = test system: LACTIC ACID PRODUCERS; test: MIC, liquid culture dilution; type: cell-based

Compound	Minimal inhibitory concentration (MIC) [1]	Minimal inhibitory concentration (MIC) [2]	Minimal inhibitory concentration (MIC) [3]	Minimal inhibitory concentration (MIC) [4]	Minimal inhibitory concentration (MIC) [5]	Minimal inhibitory concentration (MIC) [6]	Minimal inhibitory concentration (MIC) [7]	Minimal inhibitory concentration (MIC) [8]
NC(=O)CC(N)C(=O)[O][Cu]([NH3+])([NH3+])[O]C(=O)C(N)CC(N)=O (stereo not shown) [Cu diammine bis-asparaginate]	1025 ppm	1025 ppm	16 ppm	32 ppm	2050 ppm			
N.N.NC(CCC(=O)O)C(=O)[O-].NC(CCC(=O)O)C(=O)[O-].[Cu+2] (stereo not shown) [Cu diammine bis-glutamate]	387 ppm		24 ppm	97 ppm				
[NH3+][Cu]([NH3+])([O]C(=O)C(O)CC(=O)O)[O]C(=O)C(O)CC(=O)O (stereo not shown) [Cu diammine bis-malate]	262 ppm	262 ppm	131 ppm	65 ppm		143 ppm		
O=C(O)CN1CCN(CC(=O)O)CC(=O)[O][Cu][O]C(=O)C1 [Cu ethylenediamine tetraacetic acid]				160 ppm		320 ppm		
O.O.O=C([O-])CN(CCN(CC(=O)[O-])CC(=O)O)CC(=O)O.[Cu+2] [Cu(H2O)2-ethylenediamine tetraacetic acid]				60 ppm		100 ppm		
O.O=C(O)CC(O)C(=O)[O-].O=C(O)CC(O)C(=O)[O-].[Cu+2] (stereo not shown) [Cu(H2O) bis-malate]		120 ppm		50 ppm	210 ppm	88 ppm		
NC(=O)C[C@H](N)C(=O)[O-].NC(=O)C[C@H](N)C(=O)[O-].[Zn+2] [Zn bis-asparaginate]	26 ppm		51 ppm	412 ppm				
O=C([O-])c1ccccc1.O=C([O-])c1ccccc1.[Zn+2] [Zn bis-benzoate]		>4000 ppm		>4000 ppm	>4000 ppm			
NC(Cc1cnc[nH]1)C(=O)[O-].NC(Cc1cnc[nH]1)C(=O)[O-].[Zn+2] (stereo not shown) [Zn bis-histidinate]	>4000 ppm	>4000 ppm	4 ppm	650 ppm	>4000 ppm			
O=C(O)CC(O)C(=O)[O-].O=C(O)CC(O)C(=O)[O-].[Zn+2] (stereo not shown) [Zn bis-malate]		280 ppm			360 ppm		600 ppm	600 ppm
O=C(O)c1ccccc1[O-].O=C(O)c1ccccc1[O-].[Zn+2] [Zn bis-salycilate]		>4000 ppm		>4000 ppm	>4000 ppm			
[NH2][Zn]1([NH2])[O]C(=O)CN(CC(=O)O)CCN(CC(=O)O)CC(=O)[O]1 [Zn diamino ethylenediamine tetraacetic acid]				100 ppm		>4000 ppm		
N.N.NC(CC(=O)O)C(=O)[O-].NC(CC(=O)O)C(=O)[O-].[Zn+2] (stereo not shown) [Zn diammine bis-aspartate]		123 ppm			247 ppm			
N.N.NC(CCC(=O)O)C(=O)[O-].NC(CCC(=O)O)C(=O)[O-].[Zn+2] (stereo not shown) [Zn diammine bis-glutamate]	42 ppm		21 ppm	334 ppm				
O=C([O-])CN(CCN(CC(=O)O)CC(=O)O)CC(=O)[O-].[Zn+2] [Zn ethylenediamine-tetraacetic acid]				1000 ppm		450 ppm		
N[C@@H](CC(=O)[O-])C(=O)[O-].[Zn+2] [Zn mono-aspartate]		74 ppm			74 ppm			
NC(CCC(=O)[O-])C(=O)[O-].[Zn+2] (stereo not shown) [Zn mono-glutamate]	36 ppm	70 ppm	18 ppm	475 ppm				
O=C([O-])CN(CC(=O)[O-])CC(=O)O.[Zn+2] [Zn nitrolotriacetate]		40 ppm			40 ppm			
C[C@H](N)C(=O)[O-].C[C@H](N)C(=O)[O-].O.[Zn+2] [Zn(H2O) bis-alaninate]		100 ppm		>4000 ppm	110 ppm	>4000 ppm		
CCCC(=O)[O-].CCCC(=O)[O-].O.[Zn+2] [Zn(H2O) bis-butyrate]		110 ppm			110 ppm			
CCC(=O)[O-].CCC(=O)[O-].O.[Zn+2] [Zn(H2O) bis-propionate]		160 ppm			160 ppm			
CCCCC(=O)[O-].CCCCC(=O)[O-].O.[Zn+2] [Zn(H2O) bis-valerianate]		120 ppm			120 ppm			
Cu diaminonitrolo triacetic acid				120 ppm		200 ppm		
Cu diammine asparaginate	620 ppm	620 ppm	20 ppm	38 ppm	620 ppm			

Compound	Minimal inhibitory concentration (MIC) [1]	Minimal inhibitory concentration (MIC) [2]	Minimal inhibitory concentration (MIC) [3]	Minimal inhibitory concentration (MIC) [4]	Minimal inhibitory concentration (MIC) [5]	Minimal inhibitory concentration (MIC) [6]	Minimal inhibitory concentration (MIC) [7]	Minimal inhibitory concentration (MIC) [8]
Cu diammine glutamate		688 ppm	11 ppm	43 ppm				
Cu diammine tri-asparaginate	1400 ppm	1400 ppm	43 ppm	44 ppm	>4000 ppm			
Cu diammine tri-glutamate	487 ppm		8 ppm	30 ppm				
Cu nitrolo triacetic acid				>4000 ppm		450 ppm		
Zn (H2O)2-ethylenediamine tetraacetic acid				400 ppm		320 ppm		
Zn asparaginate	18 ppm		37 ppm	297 ppm				
Zn diaminonitrolo triacetic acid				400 ppm		600 ppm		
Zn diammine asparaginate	46 ppm		23 ppm	369 ppm				
Zn diammine aspartate		92 ppm			184 ppm			
Zn diammine bis-asparaginate	62 ppm		15 ppm	494 ppm				
Zn diammine bis-histidinate	>4000 ppm	>4000 ppm	12 ppm	1950 ppm	>4000 ppm			
Zn diammine citrate	49 ppm	48 ppm	49 ppm		98 ppm			
Zn diammine glutamate	61 ppm	167 ppm	15 ppm	245 ppm				
Zn diammine tri-asparaginate	114 ppm		14 ppm	456 ppm				
Zn diammine tri-aspartate		114 ppm			228 ppm			
Zn malate [Zn(H2O)-bis-malate]	160 ppm	90 ppm	180 ppm	360 ppm	120 ppm	4400 ppm	600 ppm	500 ppm
Zn tri-asparaginate	18 ppm		19 ppm	450 ppm				
Zn triammine tri-glutamate	58 ppm		15 ppm	469 ppm				
Zn(H2O) bis-aspartate		103 ppm						
Zn(H2O) bis-glutamate	21 ppm		10 ppm	331 ppm				
Zn(H2O) tri-aspartate		75 ppm			70 ppm			
Zn(H2O) tri-glutamate	35 ppm	70 ppm	17 ppm	281 ppm				
Zn(NH4)4(glycine)2 [Zn tetraammine bis-glycinate]		140 ppm			140 ppm			
